Data taken from patent publication US20150099800A1, “NOVEL LIPASE INHIBITORS, REPORTER SUBSTRATES AND USES THEREOF” (Northeastern University, priority 2012, published 2015).
Read-outs that look alike come from different tables or passages of the source.

How the values were obtained:
[1] = target: T1, hDAGLα (Homo sapiens, UniProt Q9Y4D2); test: Evaluation of FRET reporter substrates for enzymatic hydrolysis; format: biochemical; parameters: V5; His; expressed in transfected cells; host or cells: HEK293T, transient; crude cell lysate or membrane preparation
T1 sequence (Q9Y4D2 1-1042): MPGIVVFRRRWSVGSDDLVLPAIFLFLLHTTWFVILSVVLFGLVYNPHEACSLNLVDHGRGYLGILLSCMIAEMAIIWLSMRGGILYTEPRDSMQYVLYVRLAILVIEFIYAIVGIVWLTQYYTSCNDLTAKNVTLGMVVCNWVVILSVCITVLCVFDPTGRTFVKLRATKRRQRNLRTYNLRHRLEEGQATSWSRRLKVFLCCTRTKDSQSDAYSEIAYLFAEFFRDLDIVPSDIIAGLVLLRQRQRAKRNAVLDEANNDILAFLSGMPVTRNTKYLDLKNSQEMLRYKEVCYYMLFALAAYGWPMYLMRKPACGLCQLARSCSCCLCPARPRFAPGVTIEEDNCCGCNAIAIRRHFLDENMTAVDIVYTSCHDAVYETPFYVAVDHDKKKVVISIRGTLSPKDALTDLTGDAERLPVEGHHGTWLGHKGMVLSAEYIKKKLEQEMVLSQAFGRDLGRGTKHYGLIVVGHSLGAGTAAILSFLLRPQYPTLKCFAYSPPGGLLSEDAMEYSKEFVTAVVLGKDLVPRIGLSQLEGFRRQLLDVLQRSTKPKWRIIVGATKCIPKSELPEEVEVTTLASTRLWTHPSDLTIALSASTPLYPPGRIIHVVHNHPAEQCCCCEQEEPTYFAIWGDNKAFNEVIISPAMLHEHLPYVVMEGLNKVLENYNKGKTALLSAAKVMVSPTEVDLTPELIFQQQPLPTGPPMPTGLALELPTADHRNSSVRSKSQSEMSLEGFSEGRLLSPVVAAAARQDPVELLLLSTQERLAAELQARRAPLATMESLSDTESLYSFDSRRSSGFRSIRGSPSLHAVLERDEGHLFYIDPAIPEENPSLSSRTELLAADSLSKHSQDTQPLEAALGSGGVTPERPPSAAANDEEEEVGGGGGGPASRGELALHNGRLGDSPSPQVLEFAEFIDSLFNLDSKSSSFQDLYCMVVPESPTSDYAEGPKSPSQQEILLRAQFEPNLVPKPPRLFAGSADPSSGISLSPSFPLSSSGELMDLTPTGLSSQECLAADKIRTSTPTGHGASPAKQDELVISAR
Description: Reporter compounds as substrates for hDAGLα activity with HEK293T cell lysates in the presence of 10% DMSO are shown. A) Pyrenyl analogs (17)-(19), (21), and (22) (EX 320 nm, EM 400 nm). B) NBD analog (20) (EX 485 nm, EM 535 nm).
A convenient in vitro fluorometric esterase assay utilizing the BioTek Instruments Synergy™ HT Multi-Mode Microplate 96-well reader was developed that measured nanomolar concentrations of fluorescent reaction product.

[2] = tested on: Lipoprotein Lipase (Bacterial); format: biochemical, Pseudomonas sp.
[3] = target: T2, Pancreatic Lipase (Porcine) (Sus scrofa, UniProt P00591); format: biochemical
T2 construct: purchased Sigma L3126
T2 sequence (P00591 1-450): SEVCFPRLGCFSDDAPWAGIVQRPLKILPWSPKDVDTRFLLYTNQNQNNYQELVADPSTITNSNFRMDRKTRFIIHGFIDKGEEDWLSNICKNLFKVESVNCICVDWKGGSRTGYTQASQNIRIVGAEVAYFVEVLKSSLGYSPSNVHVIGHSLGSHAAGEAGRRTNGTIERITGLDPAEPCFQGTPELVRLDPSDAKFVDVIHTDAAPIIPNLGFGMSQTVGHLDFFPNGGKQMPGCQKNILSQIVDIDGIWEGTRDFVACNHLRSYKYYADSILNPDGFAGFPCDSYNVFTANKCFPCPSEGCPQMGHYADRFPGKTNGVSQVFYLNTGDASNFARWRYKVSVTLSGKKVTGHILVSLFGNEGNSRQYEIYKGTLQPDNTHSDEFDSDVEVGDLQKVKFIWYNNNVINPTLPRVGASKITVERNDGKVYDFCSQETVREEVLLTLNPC

[4] = target: T3, MAGL (Homo sapiens, UniProt Q99685); test: hMAGL coumarin substrate fluorescence assay; format: biochemical; parameters: The N-terminal his-tagged full length human monoacylglycerol lipase used; His (N); made in house; host or cells: E. coli
T3 sequence (Q99685 1-303): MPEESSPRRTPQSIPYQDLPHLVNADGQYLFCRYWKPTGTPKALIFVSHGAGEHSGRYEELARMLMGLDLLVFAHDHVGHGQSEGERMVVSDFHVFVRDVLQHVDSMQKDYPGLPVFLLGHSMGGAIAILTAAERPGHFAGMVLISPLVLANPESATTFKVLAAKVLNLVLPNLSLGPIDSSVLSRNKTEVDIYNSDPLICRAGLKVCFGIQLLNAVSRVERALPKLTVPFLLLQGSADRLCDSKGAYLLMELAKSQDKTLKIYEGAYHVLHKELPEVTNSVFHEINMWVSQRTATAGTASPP

[5] = target: T1, hDAGLα
[6] = target: T4, mDAGLα (Mus musculus, UniProt Q6WQJ1); test: Radio-TLC assay with [14C]SAG substrate, mDAGLα
T4 sequence (Q6WQJ1 1-1044): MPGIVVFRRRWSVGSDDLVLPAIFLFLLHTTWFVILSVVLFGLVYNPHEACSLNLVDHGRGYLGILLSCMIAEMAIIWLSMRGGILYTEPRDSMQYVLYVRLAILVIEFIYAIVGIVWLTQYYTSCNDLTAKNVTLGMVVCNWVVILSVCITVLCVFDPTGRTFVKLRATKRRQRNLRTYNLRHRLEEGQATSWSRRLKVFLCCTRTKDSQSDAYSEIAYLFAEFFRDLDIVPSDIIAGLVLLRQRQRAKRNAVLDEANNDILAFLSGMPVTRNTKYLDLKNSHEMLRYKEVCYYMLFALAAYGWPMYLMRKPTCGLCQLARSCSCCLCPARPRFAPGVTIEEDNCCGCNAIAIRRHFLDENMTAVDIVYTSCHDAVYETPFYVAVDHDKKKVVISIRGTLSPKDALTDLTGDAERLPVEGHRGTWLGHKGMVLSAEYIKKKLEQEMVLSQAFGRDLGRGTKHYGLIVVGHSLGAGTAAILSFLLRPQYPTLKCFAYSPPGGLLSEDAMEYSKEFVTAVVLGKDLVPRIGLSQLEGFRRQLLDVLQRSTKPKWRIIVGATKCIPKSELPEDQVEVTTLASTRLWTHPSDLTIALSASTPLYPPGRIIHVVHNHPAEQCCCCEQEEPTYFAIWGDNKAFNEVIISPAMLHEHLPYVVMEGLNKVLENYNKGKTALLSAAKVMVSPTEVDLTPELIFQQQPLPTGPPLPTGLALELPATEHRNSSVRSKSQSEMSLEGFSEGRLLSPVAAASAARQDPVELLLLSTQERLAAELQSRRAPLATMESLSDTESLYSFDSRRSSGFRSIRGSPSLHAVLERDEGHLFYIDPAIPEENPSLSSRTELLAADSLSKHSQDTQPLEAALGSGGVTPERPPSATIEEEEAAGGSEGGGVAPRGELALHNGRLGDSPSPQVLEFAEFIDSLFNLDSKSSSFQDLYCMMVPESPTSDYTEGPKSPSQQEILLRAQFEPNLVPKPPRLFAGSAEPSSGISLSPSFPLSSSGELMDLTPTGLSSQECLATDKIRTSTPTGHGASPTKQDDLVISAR

[7] = target: T5, rFAAH (Rattus norvegicus, UniProt P97612); test: rFAAH coumarin substrate fluorescence assay; format: biochemical
T5 construct: His (N); made in house; host or cells: E. coli (cell line provided by the Cravatt group)
T5 sequence (P97612 30-579 limits assumed): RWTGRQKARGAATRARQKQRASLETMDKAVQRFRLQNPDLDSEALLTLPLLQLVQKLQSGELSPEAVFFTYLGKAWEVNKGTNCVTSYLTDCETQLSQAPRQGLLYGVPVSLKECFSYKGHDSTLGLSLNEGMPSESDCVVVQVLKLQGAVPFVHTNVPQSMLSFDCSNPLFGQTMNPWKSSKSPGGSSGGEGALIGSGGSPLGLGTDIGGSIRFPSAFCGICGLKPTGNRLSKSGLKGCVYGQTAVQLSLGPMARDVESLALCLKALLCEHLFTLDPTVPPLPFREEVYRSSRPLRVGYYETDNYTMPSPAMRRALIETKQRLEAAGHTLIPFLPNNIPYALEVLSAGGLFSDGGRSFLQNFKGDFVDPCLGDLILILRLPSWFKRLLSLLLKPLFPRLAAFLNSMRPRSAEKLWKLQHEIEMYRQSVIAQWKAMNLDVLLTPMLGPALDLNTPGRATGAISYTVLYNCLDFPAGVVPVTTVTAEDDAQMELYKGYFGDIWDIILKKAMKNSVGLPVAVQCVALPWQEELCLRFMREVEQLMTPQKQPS

[8] = tested on: FAAH; conditions: read-out: IC50 FAAH with radiolabeled N-arachidonoylethanolamine (anandamide) substrate; cited from earlier work

1-(5-Dimethyloxazolinyloxyl)stearoyl-2-pyrenebutanoyl-3-methyl-sn-glycerol [Compound 21]
quality as substrate for enzymatic hydrolysis [1]: poor substrates

1-(16-Dimethyloxazolinyloxyl)stearoyl-2-pyrenebutanoyl-3-methyl-sn-glycerol [Compound 22]
quality as substrate for enzymatic hydrolysis [1]: poor substrates

CCCCCCCCCCCCCC1CC(=O)O1 (racemic) [Compound 9, 4-Tridecyloxetan-2-one]
Lipoprotein Lipase (Bacterial) inhibition at 10 μM (%) ([2]; 10 μM): <0% | inhibition at 10 µM ([3]; read-out: Pancreatic Lipase (Porcine) inhibition at 10 μM (%)): 36%

CCCCCCC[C@@H]1OC(=O)[C@H]1CCCCCC (relative stereo) [Compound 10, trans-3-hexyl-4-heptyloxetan-2-one]
Lipoprotein Lipase (Bacterial) inhibition at 10 μM (%) ([2]; 10 μM): 67% | inhibition at 10 µM ([4]; read-out: hMAGL inhibition at 10 μM (%)): 56%

CCCCCCC[C@H]1OC(=O)[C@H]1CCCCCC (relative stereo) [Compound 11, cis-3-Hexyl-4-heptyloxetan-2-one]
Lipoprotein Lipase (Bacterial) inhibition at 10 μM (%) ([2]; 10 μM): 33%

CCCCCCCCCCC[C@@H](C[C@@H]1OC(=O)[C@H]1CCCCCC)OC(=O)[C@@H](NC=O)[C@@H](C)CC [Compound 4]
hDAGLα inhibition at 10 μM (0.05% Triton X-100) (%), FRET ([5]; 10 μM): 99% | hDAGLα inhibition at 10 μM detergent free (%), FRET ([5]; 10 μM, detergent free): 92% | Lipoprotein Lipase (Bacterial) inhibition at 10 μM (%) ([2]; 10 μM): 84% | Pancreatic Lipase (Porcine) inhibition at 10 μM (%) ([3]; 10 μM): 99% | mDAGLα inhibition at 10 nM (%) [6]: 69% | mDAGLα inhibition at 100 nM (%) [6]: 80% | mDAGLα inhibition at 1000 nM (%) [6]: 96% | mDAGLα inhibition at 10000 nM (%) [6]: 96% | rFAAH inhibition at 10 μM (%) ([7]; 10 μM): 7% | hMAGL inhibition at 10 μM (%) [4]: 16%

CCCCCCCCCCC[C@@H](C[C@@H]1OC(=O)[C@H]1CCCCCC)OC(=O)[C@@H](NC=O)[C@H](C)CC [Compound 5]
hDAGLα inhibition at 10 μM (0.05% Triton X-100) (%), FRET ([5]; 10 μM): 99% | hDAGLα inhibition at 10 μM detergent free (%), FRET ([5]; 10 μM, detergent free): 92% | Lipoprotein Lipase (Bacterial) inhibition at 10 μM (%) ([2]; 10 μM): 61% | Pancreatic Lipase (Porcine) inhibition at 10 μM (%) ([3]; 10 μM): 98% | mDAGLα inhibition at 10 nM (%) [6]: 60% | mDAGLα inhibition at 100 nM (%) [6]: 61% | mDAGLα inhibition at 1000 nM (%) [6]: 88% | mDAGLα inhibition at 10000 nM (%) [6]: 100% | rFAAH inhibition at 10 μM (%) ([7]; 10 μM): 3% | hMAGL inhibition at 10 μM (%) [4]: 1%

O=C(Oc1ccc([N+](=O)[O-])cc1)N1CCN(Cc2cccc(Oc3ccccc3)c2)CC1 [JZL195]
hDAGLα inhibition at 10 μM detergent free (%), FRET [5]: 64, 55° % | hDAGLα inhibition at 10 μM detergent free (%), FRET, marker ° [5]: 64, 55° % | Lipoprotein Lipase (Bacterial) inhibition at 10 μM (%) [2]: <0% | Pancreatic Lipase (Porcine) inhibition at 10 μM (%) [3]: 43% | mDAGLα inhibition at 10000 nM (%) [6]: 10%

CCCCCCCCCCCCCCCCS(=O)(=O)F [n-C16H33SO2F, Palmitylsulfonyl fluoride]
IC50 [8]: 7 nM | rFAAH inhibition at 10 μM (%) [7]: 100^E % | IC50 ([7]; read-out: rFAAH apparent IC50 (8 pt, 95% confidence)): 6.3 nM
